Measured values reported in PubChem BioAssay (NCI).
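Five compound concentrations were applied to cells in 96-well plates for 48 hours; endpoints were derived by simple linear interpolation of the resulting dose-response curve. The concentration for full growth arrest is given as TGI.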

Assays:
Test in all cases: NCI tumour cell line growth inhibition, 48 h
[1] = system: SNB-19 CNS
[2] = system: BT-549 breast
[3] = system: UACC-62 melanoma
[4] = system: OVCAR-5 ovarian
[5] = system: NCI/ADR-RES ovarian
[6] = system: SNB-75 CNS
[7] = system: SF-268 CNS
[8] = system: RXF 393 renal
[9] = system: NCI-H23 lung
[10] = system: CCRF-CEM leukemia
[11] = system: 786-0 renal

Structure (SMILES) | TGI [1] [µM] | TGI [2] [µM] | TGI [3] [µM] | TGI [4] [µM] | TGI [5] [µM] | TGI [6] [µM] | TGI [7] [µM] | TGI [8] [µM] | TGI [9] [µM] | TGI [10] [µM] | TGI [11] [µM]
CC1=CC2(C)C=C[C@@H]1C(=O)[C@@]1(C)CC[C@@](O)(C(C)C)[C@H]1CC2 | 65.7 | 60.7 | 45.5 | 34.6 | 40 | 58.3 | 57.1 | 43.5 | 50.4 | 53.4 | 33.3
COc1ccc(COCC[C@H](C)OC2OC(CO[Si](C)(C)C(C)(C)C)C(O)C(O)C2O)cc1 (some centres undefined) | > 100 | > 100 | > 100 | > 100 | > 100 | > 100 | > 100 | > 100 | > 100 | > 100 | > 100
COC1(OC)CCN(Cc2ccccc2)C1=O | 34.9 | 31 | 26.1 | 31.8 | 55.3 | 30.6 | > 52.8 | 26.4 | 43.8 | 6.3 | 15.7
CCOC(=O)/C=C(/C(=O)OCC)n1ccc(=O)n(Cc2cn(CCCCOC(C)=O)nn2)c1=O | > 100 | > 100 | > 100 | > 100 | > 100 | > 100 | > 100 | > 100 | > 100 | 35.3 | > 100
CCCCC/C=C\C=C\CCCCCCCCC(=O)OC | > 100 | > 100 | – | > 100 | > 100 | > 100 | > 100 | > 100 | > 100 | – | > 100
Cc1ccc(NC(=O)c2cccc(OP(=O)(Nc3ccc(C)cc3)Nc3ccc(C)cc3)c2)cc1 | > 100 | > 100 | > 100 | > 100 | > 100 | 30.6 | > 100 | 6.75 | > 100 | > 100 | > 100
COc1cc(-c2nc(N)c(C#N)c3c2CCS(=O)(=O)c2ccc(C)cc2-3)cc(OC)c1OC | 29.5 | > 100 | > 100 | > 100 | > 100 | 75.9 | > 100 | – | > 100 | > 100 | > 100
CCOC(=O)/C(C1=NCCN1C)=C(\O)c1ccccc1 | > 100 | – | > 100 | > 100 | – | – | > 100 | > 100 | > 100 | > 100 | > 100
Nc1ncnc2c1ccn2CC#CCO | > 100 | > 100 | > 100 | > 100 | > 100 | > 100 | > 100 | > 100 | > 100 | > 100 | > 100
C1=NN2C(c3ccccc3)=NOC2C2C(c3ccccc3)=NOC12 (centres undefined) | > 100 | > 100 | > 100 | > 100 | > 100 | > 100 | > 100 | > 100 | > 100 | – | > 100
Cc1cc(NS(=O)(=O)c2ccc(NO)cc2)no1 | > 100 | > 100 | > 100 | > 100 | > 100 | > 100 | > 100 | > 100 | – | 44.7 | > 100
CC1(C)N=C(C(N)=O)c2ncn(Cc3ccccc3)c2N1 | > 100 | – | > 100 | > 100 | > 100 | > 100 | > 100 | > 100 | > 100 | > 100 | > 100
COc1ccc(S(=O)(=O)N/N=C(\C)CN2C(=O)c3ccccc3C2=O)cc1OC | > 100 | – | > 100 | > 100 | – | > 100 | > 100 | – | > 100 | > 100 | > 100
Cc1c(-c2coc(-c3ccc([N+](=O)[O-])cc3)n2)c(=O)n(-c2ccccc2)n1C | – | – | > 100 | > 100 | – | > 100 | > 100 | – | > 100 | > 100 | > 100
COc1nc(=O)[nH]c2c1C(c1ccc([N+](=O)[O-])cc1)c1c(OC)nc(=O)[nH]c1O2 | > 100 | > 100 | > 100 | > 100 | > 100 | – | > 100 | > 100 | > 100 | > 100 | > 100
O=C1CSC(c2ccccc2)N1c1ccc(-c2ccc(-n3c(-c4ccccc4)nc4ccccc4c3=O)cc2)cc1 (centres undefined) | > 100 | > 100 | > 100 | > 100 | > 100 | – | > 100 | – | > 100 | > 100 | > 100
Cc1nc(C)c(N2CCN(Cc3ccccc3)CC2)c(=O)[nH]1 | > 100 | > 100 | > 100 | – | > 100 | – | > 100 | > 100 | > 100 | > 100 | > 100
N#Cc1c(-c2ccccc2)cn(C(=O)c2ccccc2)c1N | > 100 | – | > 100 | > 100 | > 100 | > 100 | > 100 | – | > 100 | > 100 | > 100
O=C1CCC(=O)c2ccccc2N1 | > 100 | – | – | > 100 | – | > 100 | > 100 | > 100 | > 100 | > 100 | > 100
Cc1cn(CC(=S)NCCc2c[nH]c3ccccc23)c(=O)[nH]c1=O | > 100 | > 100 | > 100 | > 100 | > 100 | – | > 100 | > 100 | > 100 | > 100 | > 100
N#Cc1c(C#N)c(SSc2c(C#N)c(C#N)c(N)n2-c2cccc3ccccc23)n(-c2cccc3ccccc23)c1N | 46.4 | 12.6 | 46.6 | 49.9 | > 76.8 | 38.7 | 33.2 | 17.4 | > 63.2 | – | 4.26
CCCCCN1C(=O)C(Cc2ccccc2)N=C(c2ccc(O)cc2)c2cc(Cl)ccc21 (centres undefined) | 33.7 | 33.4 | 25 | 48.3 | 25.4 | 23.7 | 25.3 | – | 17.7 | > 100 | 27.3

Structure (SMILES) | TGI [1] [µM] | TGI [2] [µM] | TGI [3] [µM] | TGI [4] [µM] | TGI [5] [µM] | TGI [6] [µM] | TGI [7] [µM] | TGI [8] [µM] | TGI [9] [µM] | TGI [10] [µM] | TGI [11] [µM]
O=C(O)C12C3CCC(C3)C1(C(=O)O)C1CCC2C1 (centres undefined) | > 100 | – | > 100 | > 100 | – | > 100 | > 100 | > 100 | > 100 | 95 | > 100
CC(=Nc1ccc(Cl)cc1)c1ccncc1 | > 100 | > 100 | – | > 100 | > 100 | > 100 | > 100 | > 100 | > 100 | > 100 | > 100
N#CCCC(C#N)(C#N)CCC#N | > 100 | – | > 100 | – | – | – | > 100 | – | > 100 | – | > 100
Nc1ccc(Oc2ccc(C34CC5C6CC7(c8ccc(Oc9ccc(N)cc9)cc8)CC5C(C3)C(C7)C6C4)cc2)cc1 | > 100 | > 100 | > 100 | > 100 | > 100 | – | > 100 | > 100 | > 100 | > 100 | > 100
Cc1ccc(S(=O)(=O)c2ccc(C)cc2[N+](=O)[O-])c([N+](=O)[O-])c1 | > 100 | – | > 100 | > 100 | – | > 100 | > 100 | > 100 | > 100 | > 100 | > 100
COc1cccc(CCn2c(N)c(-c3cc(Cl)cc(Cl)c3)c3ccc([N+](=O)[O-])cc3c2=O)c1 | > 44 | > 59.5 | > 100 | > 100 | > 55 | > 100 | > 100 | – | 5.99 | – | > 100
C=C1N(C)c2ccc(S(=O)(=O)c3ccc4c(c3)C(C)(C)C(=C)N4C)cc2C1(C)C | > 100 | 87.9 | > 100 | > 100 | > 100 | 62.7 | > 100 | – | > 100 | > 100 | > 100
COc1ccc(/C(C)=C2\CCCN(Cc3ccccc3)C2)cc1 | 50.6 | – | 57.9 | > 100 | 57.5 | 73.1 | 40.6 | 43.2 | 79.6 | 62.2 | 33.9
c1ccc2c(c1)CCN1CCc3ccccc3C1C2 (centres undefined) | > 100 | > 100 | > 100 | > 100 | > 100 | > 100 | > 100 | – | > 100 | > 100 | > 100
COc1cc2ccnc(C#N)c2cc1OCc1ccccc1 | > 100 | – | – | > 100 | – | 66.3 | > 100 | – | > 100 | > 100 | > 100
CC(CC(=O)N1C2CC3CCC2(CS1(=O)=O)C3(C)C)[Si](C)(C)C (centres undefined) | > 100 | > 100 | – | – | > 100 | > 100 | > 100 | > 100 | > 100 | > 100 | > 100
O=c1[nH]c(=O)n([C@H]2C[C@@H](CO)[C@@H](O)C2)cc1I | > 100 | – | > 100 | > 100 | – | > 100 | > 100 | – | > 100 | > 100 | > 100
COc1ccccc1N1CCN(S(=O)(=O)c2ccc(Cl)cc2)C1=N | > 100 | > 100 | > 100 | > 100 | > 100 | > 100 | > 100 | > 100 | > 100 | – | > 100
CC(=O)N1C(c2[nH]c3ccccc3c2Cc2ccccc2)CCN1c1ccccc1 (centres undefined) | > 10 | > 10 | – | > 10 | > 10 | > 10 | > 10 | > 10 | > 10 | > 10 | > 10
CC(C)CCNC(=O)c1ccc(CNC(=O)/C=C/c2ccc3ccccc3c2)cc1 | > 100 | – | > 100 | > 100 | > 100 | > 100 | > 100 | > 100 | > 100 | – | > 100
C1CSCCSCCSCCSCCS1 | > 100 | > 100 | > 100 | > 100 | > 100 | > 100 | > 100 | > 100 | > 100 | – | > 100
O=C1C(Cl)C(c2ccc(O)cc2)N1n1cnc2ccccc2c1=O (centres undefined) | > 100 | – | 48.4 | > 100 | – | > 100 | > 100 | 35.7 | > 96.3 | > 100 | > 100
Cc1cc2c(cc1Cl)SC(NNCCO)=NS2(=O)=O | > 100 | > 100 | > 100 | – | > 100 | > 100 | > 100 | > 100 | > 100 | > 100 | > 100
CN1N=C(c2ccncc2)OC1c1cccc(F)c1 (centres undefined) | > 100 | – | > 100 | > 100 | > 100 | > 100 | > 100 | > 100 | > 100 | > 100 | > 100
COC(=O)C(=O)C(C(=O)OC)C(=O)C(=O)Nc1cc(Cl)c(C)cc1S(=O)(=O)O (centres undefined) | > 100 | – | > 100 | > 100 | – | > 100 | > 100 | > 100 | > 100 | > 100 | > 100
COC(C)=NCCC1=CCCCC1 | > 100 | > 100 | > 100 | > 100 | > 100 | > 100 | > 100 | > 100 | > 100 | – | > 100
COP12(OC)NC(=O)OC1(C(F)(F)F)c1ccccc1O2 (centres undefined) | > 100 | – | > 100 | – | – | > 100 | > 100 | > 100 | > 100 | > 100 | > 100
